Test results from the supplement of paper PMC4862054.

Tests used:
Conditions in all cases: incubation time: 72 h
[1] = system: DU-4475; assay: normalised response (% of control), CellTiter-Glo; higher = more viable cells (100 = DMSO, 0 = benzethonium chloride kill control)
In short: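 In 384-well plates holding compound at 5 concentrations in 10-fold steps over a 10,000-fold range specific to each compound, breast cancer cell lines were seeded as 20 µl suspension and incubated 72 h. CellTox Green fluorescence was measured at 485/520 nm, after which CellTiter-Glo luminescence was measured following 10 min at room temperature. Plate signals were normalised to 0.1 % DMSO (100) and a positive kill control (0), and each value is the normalised signal at a single concentration.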

[2] = system: HCC1599; assay: drug sensitivity score (DSS), CellTiter-Glo (DSS (AUC-based score)); higher = stronger drug effect (viability inhibition or cytotoxicity); extreme values may be limits of the assay
In short: (§1)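 The area under the fitted dose-response curve was used to calculate the drug sensitivity score. Cells from breast cancer lines were incubated for 72 h in 384-well plates with compound at 5 concentrations spaced 10-fold over a 10,000-fold range specific to each compound. Plates were read for CellTox Green and then CellTiter-Glo, and normalised to 0.1 % DMSO and a positive kill control.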

[3] = system: CAL-85-1; assay: as above
In short: as §1

[4] = system: MCF-10A; assay: as above
In short: as §1

[5] = system: BT-474; assay: as above
In short: as §1

[6] = system: HDQ-P1; assay: as above
In short: as §1

[7] = system: BT-549; assay: as above
In short: as §1

[8] = system: CAL-120; assay: as above
In short: as §1

[9] = system: CAL-148; assay: as above
In short: as §1

[10] = system: MDA-MB-231; assay: as above
In short: as §1

[11] = system: SK-BR-3; assay: as above
In short: as §1

[12] = system: MDA-MB-436; assay: as above
In short: as §1

[13] = system: MDA-MB-468; assay: as above
In short: as §1

[14] = system: Hs578T; assay: as above
In short: as §1

[15] = system: MFM-223; assay: as above
In short: as §1

[16] = system: HCC1937; assay: as above
In short: as §1

[17] = system: HCC1143; assay: as above
In short: as §1

[18] = system: MDA-MB-453; assay: as above
In short: as §1

[19] = system: DU-4475; assay: as above
In short: as §1

[20] = system: CAL-51; assay: as above
In short: as §1

[21] = system: HDQ-P1; assay: drug sensitivity score (DSS), CellTox Green (DSS (AUC-based score)); higher = stronger drug effect (viability inhibition or cytotoxicity); extreme values may be limits of the assay
In short: as §1

[22] = system: CAL-148; assay: as above
In short: as §1

[23] = system: MDA-MB-468; assay: as above
In short: as §1

Compound: CC(C)C(=O)Nc1ccc([N+](=O)[O-])c(C(F)(F)F)c1 [Flutamide] (1000 nM)
- normalised response [1]: 95.9%

Compound: COc1cc2c(Oc3ccc(NC(=O)C4(C(=O)Nc5ccc(F)cc5)CC4)cc3F)ccnc2cc1OCCCN1CCOCC1 [Foretinib] (100 nM)
- normalised response [1]: 99.9%

Compound: Cc1c(N)nc([C@H](CC(N)=O)NC[C@H](N)C(N)=O)nc1C(=O)N[C@H](C(=O)N[C@H](C)[C@@H](O)[C@H](C)C(=O)N[C@H](C(=O)NCCc1nc(-c2nc(C(=O)NCCC[S+](C)C)cs2)cs1)[C@@H](C)O)[C@@H](OC1OC(CO)C(O)C(O)C1OC1OC(CO)C(O)C(OC(N)=O)C1O)c1cnc[nH]1 (some centres not stated) [Bleomycin] (1000 nM)
- normalised response [1]: 92.1%

Compound: CO[C@H](C(=O)[C@@H](O)[C@@H](C)O)[C@@H]1Cc2cc3cc(O[C@H]4C[C@@H](O[C@@H]5C[C@@H](O)[C@H](O)[C@@H](C)O5)[C@H](O)[C@@H](C)O4)c(C)c(O)c3c(O)c2C(=O)[C@H]1O[C@H]1C[C@@H](O[C@@H]2C[C@@H](O)[C@@H](O[C@@H]3C[C@](C)(O)[C@H](O)[C@@H](C)O3)[C@@H](C)O2)[C@H](O)[C@@H](C)O1 [Plicamycin] (1000 nM)
- normalised response [1]: 99.2%

Compound: O=C(O)CC[C@H]1CC[C@@](c2cc(F)ccc2F)(S(=O)(=O)c2ccc(Cl)cc2)CC1 [MK-0752] (100 nM)
- normalised response [1]: 99.2%

Compound: Cc1c(N)nc([C@H](CC(N)=O)NC[C@H](N)C(N)=O)nc1C(=O)N[C@H](C(=O)N[C@H](C)[C@@H](O)[C@H](C)C(=O)N[C@H](C(=O)NCCc1nc(-c2nc(C(=O)NCCC[S+](C)C)cs2)cs1)[C@@H](C)O)[C@@H](OC1OC(CO)C(O)C(O)C1OC1OC(CO)C(O)C(OC(N)=O)C1O)c1cnc[nH]1 (some centres not stated) [Bleomycin]
- drug sensitivity score [2]: 0
- drug sensitivity score [3]: 0
- drug sensitivity score [4]: 0
- drug sensitivity score [5]: 0
- drug sensitivity score [6]: 0
- drug sensitivity score [7]: 8.65
- drug sensitivity score [8]: 0.67
- drug sensitivity score [9]: 4.27
- drug sensitivity score [10]: 0
- drug sensitivity score [11]: 2.43
- drug sensitivity score [12]: 4.49
- drug sensitivity score [13]: 0
- drug sensitivity score [14]: 0
- drug sensitivity score [15]: 0
- drug sensitivity score [16]: 2.76
- drug sensitivity score [17]: 4.08
- drug sensitivity score [18]: 0
- drug sensitivity score [19]: 0
- drug sensitivity score [20]: 16.1
- drug sensitivity score [21]: 0
- drug sensitivity score [22]: 8.42
- drug sensitivity score [23]: 0

Compound: CCCCCOC(=O)Nc1nc(=O)n([C@@H]2O[C@H](C)[C@@H](O)[C@H]2O)cc1F [Capecitabine]
- drug sensitivity score [2]: 0
- drug sensitivity score [3]: 0
- drug sensitivity score [4]: 0
- drug sensitivity score [5]: 0
- drug sensitivity score [6]: 0
- drug sensitivity score [7]: 0
- drug sensitivity score [8]: 0
- drug sensitivity score [9]: 0
- drug sensitivity score [10]: 0
- drug sensitivity score [11]: 0
- drug sensitivity score [12]: 0.812
- drug sensitivity score [13]: 0
- drug sensitivity score [14]: 0
- drug sensitivity score [15]: 0
- drug sensitivity score [16]: 0
- drug sensitivity score [17]: 0
- drug sensitivity score [18]: 0
- drug sensitivity score [19]: 0
- drug sensitivity score [20]: 0
- drug sensitivity score [21]: 0
- drug sensitivity score [22]: 0
- drug sensitivity score [23]: 0

Compound: CCN(CC)CCOc1ccc(C(=C(Cl)c2ccccc2)c2ccccc2)cc1 [Clomifene] (1000 nM)
- normalised response [1]: 97.4%

Compound: COc1cc2c(N3CCN(C(=O)Nc4ccc(OC(C)C)cc4)CC3)ncnc2cc1OCCCN1CCCCC1 [Tandutinib] (100 nM)
- normalised response [1]: 99.7%

Compound: CCCCCOC(=O)Nc1nc(=O)n([C@@H]2O[C@H](C)[C@@H](O)[C@H]2O)cc1F [Capecitabine] (1000 nM)
- normalised response [1]: 98.6%

Compound: C[C@]12C=CC(=O)C=C1CC[C@@H]1[C@@H]2C(=O)C[C@@]2(C)[C@H]1CC[C@]2(O)C(=O)CO [Prednisone]
- drug sensitivity score [2]: 0
- drug sensitivity score [3]: 0
- drug sensitivity score [4]: 0
- drug sensitivity score [5]: 0
- drug sensitivity score [6]: 0
- drug sensitivity score [7]: 0
- drug sensitivity score [8]: 0.925
- drug sensitivity score [9]: 0
- drug sensitivity score [10]: 0
- drug sensitivity score [11]: 0
- drug sensitivity score [12]: 0
- drug sensitivity score [13]: 0
- drug sensitivity score [14]: 0
- drug sensitivity score [15]: 0
- drug sensitivity score [16]: 0
- drug sensitivity score [17]: 0
- drug sensitivity score [18]: 0
- drug sensitivity score [19]: 0
- drug sensitivity score [20]: 0
- drug sensitivity score [21]: 0
- drug sensitivity score [22]: 0
- drug sensitivity score [23]: 0

Compound: CC[C@@H]1C(=O)N(C)c2cnc(Nc3ccc(C(=O)N[C@H]4CC[C@H](N5CCN(CC6CC6)CC5)CC4)cc3OC)nc2N1C(C)C [Volasertib] (100 nM)
- normalised response [1]: 49.1%

Compound: C[C@]12C=CC(=O)C=C1CC[C@@H]1[C@@H]2C(=O)C[C@@]2(C)[C@H]1CC[C@]2(O)C(=O)CO [Prednisone] (1000 nM)
- normalised response [1]: 99%

Compound: O=C(c1cc(Cc2n[nH]c(=O)c3ccccc23)ccc1F)N1CCN(C(=O)C2CC2)CC1 [Olaparib] (1000 nM)
- normalised response [1]: 92.5%
